# Source: patent US11572475B2, “Carbocyanines for G-quadruplex DNA stabilization and telomerase inhibition” (GEORGIA STATE UNIVERSITY RESEARCH FOUNDATION, INC., priority 2011, dated 2023)
# Assays:
# c-Myc quadruplex DNA = assay: Fluorescence titration with c-Myc quadruplex; assay type: binding; details: fluorescence intensity of bound ligand divided by that of free ligand
# Description: (§1) Atoms absorb energy and can emit it as heat (vibrational relaxation), fast light emission (fluorescence), or slow light emission (phosphorescence). Most of the cyanines described herein fluoresce in response to near-infrared wavelengths of light absorption. As the cyanines bind to DNA, π-π stacking and hydrogen bonding is altered leading to a change in fluorescence emission. This change can be measured in direct correlation to DNA binding. In some cases an approximate binding constant can be determined from measuring fluorescence enhancement as DNA is titrated into a solution of fluorescent compound. Fluorescent enhancement, or the maximum emission divided by the minimum emission of the titration (compound saturated with DNA divided by free compound) at a fixed wavelength is useful to compare DNA affinity between a family of compounds.
# (§2) A UV-Vis absorbance scan is first conducted to acquire the excitation wavelength. A 5 μM solution of compound in 1 mL, of Tris/K+ buffer is scanned from 800 nm to 200 nm at a rate of 60 nm/min with a 5 nm slit width. All DNAs are diluted in Tris/K+ buffer. The human telomere and c-Myc DNA are annealed into a quadruplex motif by heating at 95° C. in the presence of potassium ions in a hot water bath for approximately five minutes, then allowing the solution to slowly come to room temperature. In a fluorescence cell, an emission scan of 1 μM of compound in 1 mL of Tris Buffer is taken (Varian Cary Eclipse, Walnut Creek, Calif.) with appropriate parameters based on the excitation wavelength, an excitation slit width of 5 nm, and an emission slit width of 5 nm. Then 0.05 μM of DNA is titrated into the solution and scanned under the same conditions after each addition. The solution is titrated to saturation, at which the change in fluorescence intensity is nearly zero.
# (§3) Due to the highly stabilized parallel quadruplex structure of c-Myc, thermal melting could not be considered for this sequence. Thus, fluorescence can be used to measure binding affinity towards the two quadruplex structures. […] Fluorescence enhancement, or the fluorescence intensity of the bound ligand divided by that of the free ligand, was considered in evaluating binding.
# [1] = test system: Human Telomere (HT) quadruplex DNA; assay: Fluorescence titration with human telomere quadruplex; assay type: binding; details: fluorescence intensity of bound ligand divided by that of free ligand
# Description: as §1, §2, §3
# [2] = test system: Human Telomere (HT) quadruplex DNA; assay: Thermal melting UV-Vis absorbance, quadruplex DNA; assay type: binding; details: for Selectivity for quadruplex over duplex DNA by thermal melting: quadruplex vs duplex; for Change in Thermal Melting Points, Human Telomere (HT), 1:1: ratio 1:1 (R); for Change in Thermal Melting Points, Human Telomere (HT), 2:1: ratio 2:1 (R); for Change in Thermal Melting Points, Human Telomere (HT), 4:1: ratio 4:1 (R); for Change in Thermal Melting Points, Human Telomere (HT), 6:1: ratio 6:1 (R)
# Method: (§4) Three DNA sequences were used: Human Telomere (HTelo), c-myc, and Duplex (Integrated DNA Technologies, San Diego, Calif.). The sequences are shown below:
# The concentration of each DNA sample mixed with MilliQ water was determined by UV-Vis at 260 nm using their extinction coefficients. Quadruplexes from Human Telomere (Tel22) and c-myc were prepared by heating the corresponding oligonucleotides at 90° C. for 5 minutes in a 10 mM Tris/50 mM KCl buffer at pH 7.5 and then cooling to room temperature (to favor the intramolecular folding).
# (§5) The buffer used was 10 mM Tris base (Fischer Scientific, Fairlawn, N.J.), 50 mM Potassium Chloride (Fischer Scientific, Fairlawn, N.J.), with the pH adjusted to 7.5 with Hydrochloric Acid (Fischer Scientific, Fairlawn, N.J.).
# (§6) DNA folding and unfolding (melting) can be measured using absorbance at a constant wavelength of 260 nm for duplex DNA and 295 nm for quadruplex DNA while the temperature is increased, for example from 25° C. to 95° C. At these wavelengths, the resulting curves decrease in absorbance for quadruplex and increase for duplex DNA. Buffer solution and presence of DNA-binding compounds alter the Tm melting temperature, or midpoint between fully folded and unfolded. An increase in melting temperature in the presence of DNA-binding compounds indicates a stabilizing effect of the compound on the DNA structure.
# (§7) The selectivity of a given cyanine for quadruplex DNA can be evaluated using thermal melting. The number in parentheses next to the compound number corresponds to the compound number in Schemes 1 and 2.
# (§8) Thermal melting studies were also performed on compounds T4 and T5 (Scheme 2) and ZK-14 and SP-2-36.
# Duplex DNA = assay: Thermal melting UV-Vis absorbance, duplex DNA; assay type: binding; details: for Change in Thermal Melting Points, Duplex, 1:1: ratio 1:1 (R); for Change in Thermal Melting Points, Duplex, 2:1: ratio 2:1 (R); for Change in Thermal Melting Points, Duplex, 4:1: ratio 4:1 (R); for Change in Thermal Melting Points, Duplex, 6:1: ratio 6:1 (R)
# Method: as §4, §5, §6, §7, §8
# [3] = Trypan blue exclusion assay for cell viability, HDF; assay type: cell-based; details: human, HDF cells (non-cancerous cell line); at the lower dose (5 μM); read-out: cell viability of normal cells (HDF)
# Method: (§9) To evaluate the cytotoxic properties of the cyanines described herein, trypan blue exclusion assay for cell viability was performed on 10 compounds at two different concentrations (5 μM and 20 μM). To test the cancer selectivity of the dyes, the results were compared in a cancer cell line, HeLa and a non-cancerous cell line, HDF. The loss of membrane integrity in dead and dying cells allows preferential uptake of labels like trypan blue. At the end of the incubation times with the dyes, HeLa or HDF cells were pelleted and washed with PBS. Well-suspended cells were mixed with equal volume of 0.4% trypan blue in 1×PBS, pH 7.4, followed by incubation at room temperature for 5 min. Cells were examined under the microscope and blue-stained cells were considered non-viable.
# HeLa cells = assay: Trypan blue exclusion assay for cell viability, HeLa; assay type: cell-based; details: for Hela cells killed: after 24 h
# Method: as §9
# A2T2 = assay: Isothermal calorimetry, A2T2; assay type: binding; details: 25° C.
# Method: (§10) DNA binding is dependent on enthalpy and entropy, components of the Gibbs free energy. Isothermal calorimetry measures the heat absorbed (endothermic binding) or released (exothermic binding) in binding at the μcalorie level. By examining the thermodynamics of different compounds, compounds can be analyzed to determine what factors favor quadruplex over duplex DNA binding. Enthalpy and binding constants are determined from measuring the heat change when compound is injected into a DNA solution, and the equations ΔG=ΔH−TΔS ΔG=−RT ln K are used to calculate entropy and Gibbs free energy.
# (§11) Solutions of compound (0.2 mM) were injected 30 times into solutions of DNA (0.02 mM) on a VPC-ITC. All solutions were degasses at 25° C. for 15 minutes. TRIS/K^+ buffer was used in the reference cell. The injections were monitored at 25° C. with a reference power of 1 μcal/sec, an initial delay of 300 sec, and a stirring speed of 290. The first injection was 2 μL for 4 sec, with a spacing of 300 sec, and a filter period of 1 sec. The remaining 29 injections were 10 μL volume for a duration of 20 sec, with a spacing of 300 sec, and a filter period of 1 sec. The data was analyzed by VPViewer 2000 software.
# (§12) Isothermal calorimetry (ITC) experiments were performed to test the SPR and fluorescence preference in binding c-myc over hTelo. […]
# hTelo = assay: Isothermal calorimetry, hTelo; assay type: binding, human; details: 25° C.
# Method: as §10, §11, §12
# c-myc = assay: Isothermal calorimetry, c-myc; assay type: binding; details: ITC, 25° C.
# Method: as §10, §11, §12
# HDF cells = assay: Trypan blue exclusion assay for cell viability, HDF; assay type: cell-based; details: at both concentrations; text also says lower concentrations (5-10 μM)
# Method: as §9
Compound,"Fluorescence Enhancement, c-Myc (c-Myc quadruplex DNA)","Fluorescence Enhancement, HT [1]",Selectivity for quadruplex over duplex DNA by thermal melting [2],"Change in Thermal Melting Points, Human Telomere (HT), 1:1 [2]","Change in Thermal Melting Points, Human Telomere (HT), 2:1 [2]","Change in Thermal Melting Points, Human Telomere (HT), 4:1 [2]","Change in Thermal Melting Points, Human Telomere (HT), 6:1 [2]","Change in Thermal Melting Points, Duplex, 1:1 (Duplex DNA)","Change in Thermal Melting Points, Duplex, 2:1 (Duplex DNA)","Change in Thermal Melting Points, Duplex, 4:1 (Duplex DNA)","Change in Thermal Melting Points, Duplex, 6:1 (Duplex DNA)",viability at 5 µM [3],Hela cells killed (HeLa cells; 5 μM),Hela cells killed (HeLa cells; 20 μM),ITC binding to A2T2 (A2T2),ITC binding to hTelo (hTelo),"Cytotoxicity to cancer cells (HeLa cells; HeLa, both concentrations studied (5 μM and 20 μM))","K (M^−1), c-myc (c-myc)","K (M^−1), hTelo (hTelo; ITC)","cell death, HDFs (HDF cells)"
CC1(C)C(/C=C/C(Cl)=C/C=C2\N(CCC[N+](C)(C)C)c3ccccc3C2(C)C)=[N+](CCC[N+](C)(C)C)c2ccccc21.[Br-].[Br-].[Br-] [A-20 (42)],3.58,1.74,selectively bind to quadruplex DNA with little or no binding to duplex DNA,2.6,6.0,12.2,13.2,0,0.9,0.9,2.8,,,,,,,,,
CC1(C)C(=CC=CC2=[N+](CCC[N+](C)(C)C)c3ccc(Cl)cc3C2(C)C)N(CCC[N+](C)(C)C)c2ccc(Cl)cc21.[Br-].[Br-].[Br-] [A-138 (17)],5.4,2.7,selectively bind to quadruplex DNA with little or no binding to duplex DNA,3.0,7.0,14.6,,0.0,0.0,−1.0,,,,,,,,,,
CC1(C)C(/C=C/C(Br)=C/C=C2/N(CCC[N+](C)(C)C)c3ccc(I)cc3C2(C)C)=[N+](CCC[N+](C)(C)C)c2ccc(I)cc21 [A-161 (50)],,,,4.1,9.2,16.2,21.7,,,,,100%,> 70%,> 70%,,,,,,
CC1(C)C(/C=C/C=C2/N(CCC[N+](C)(C)C)c3ccc(Br)cc3C2(C)C)=[N+](CCC[N+](C)(C)C)c2ccc(Br)cc21 [MH5 (28)],4.65,1.6,selectively bind to quadruplex DNA with little or no binding to duplex DNA,1,5.2,14.2,23.7,−0.1,−1.0,−1.0,−0.1,,,,No binding,Weak binding- unable to fit,highly cytotoxic to cancer cells,1.19e+06 M⁻¹,,
CC1(C)C(/C=C/C(Br)=C/C=C2\N(CCC[N+](C)(C)C)c3ccccc3C2(C)C)=[N+](CCC[N+](C)(C)C)c2ccccc21 [A-C8 (43)],3.46,1.66,selectively bind to quadruplex DNA with little or no binding to duplex DNA,2.0,4.6,11.6,15.6,0.0,−1.1,0.9,−0.2,,,,No binding,,,802000 M⁻¹,55700 M⁻¹,~35%
CC1(C)C(=CC=CC2=[N+](CCC[N+](C)(C)C)c3ccccc3C2(C)C)N(CCC[N+](C)(C)C)c2ccccc21.[Br-].[Br-].[Br-] [MH4 (26)],7.74,1.68,selectively bind to quadruplex DNA with little or no binding to duplex DNA,1.6,4.1,8.7,13.7,0,0.9,−0.2,1.8,,,,,,,,,
